Target: T1, human metabotropic Glutamate 4 receptor (Homo sapiens, UniProt Q14833)
T1 construct: expressed in transfected cells; host or cells: HEK293
Experiment: In vitro testing of mGluR4 potency (Assay A), cAMP HTRF in HEK293 cells
Format: cell-based
Settings: not given
Protocol: A. In Vitro Testing of mGluR4 Potency
The in vitro activity of the compounds according to the invention may be investigated as follows:
The HEK293 cell overexpressing the human metabotropic Glutamate 4 receptor were thawed at 37° C. and immediately diluted with cell culture medium. After centrifugation, the cell pellet is re-suspended in medium and then distributed from a stirred spinner flask into the wells of the assay plate. The plates are incubated for one hour at room temperature before they are incubated for 24 hours at 37° C./5% C02. After washing the cells in the plate three times with 80 uL HBSS/HEPES buffer (10 uL buffer remained in the wells after washing), 5 uL per well of compounds diluted in HBSS/HEPES buffer containing 0.2% BSA (final concentration: 0.1%) and 1 mM IBMX (final concentration: 0.5 mM) are added to the wells of the assay plate. Thereafter 5 uL per well of L-Glutamic acid (final concentration: 10 uM), forskolin (final concentration: 1 uM) and 1 mM IBMX (final concentration: 0.5 mM) dissolved in HBSS/HEPES buffer containing 0.2% BSA (final concentration: 0.1%) are added to the assay plate (final DMSO concentration: 1%). Several wells of the assay plate are used either for the positive and the negative controls or for the cAMP standard curve. The assay plate is incubated for 30 minutes at room temperature. Then 5 ul per well of Anti-cAMP-Antibody-d2 solution and 5 ul per well of cAMP-Europium Cryptate dilution are added to all wells of the plate and the plate is incubated another 60 minutes light protected at room temperature. The emission at 615 nm and 665 nm (Excitation wavelength: 320 nm) are measured on the EnVision™ reader (PerkinElmer). The ratio between the emission at 665 nm and 615 is calculated by the reader. The whole assay is performed in the dark or under green light.
The cAMP standard is prepared by diluting the cAMP stock solution with HBSS/Hepes buffer: 5 μl/well of the cAMP dilutions (in HBSS/Hepes buffer containing 1 mM IBMX and 0.2% BSA-final concentration: 0.5 mM IBMX and 0.1% BSA) are added to 10 ul/well HBSS/Hepes buffer plus 5 ul/well 4% DMSO in HBSS/Hepes containing 0.2% BSA (final DMSO concentration: 1%-like in the wells containing compounds) in the wells of the assay plate. The final cAMP concentrations in the assay plate were: 0, 0.17, 0.69, 2.78, 11.1, 44.5, 178, and 712 nM (two wells/cAMP concentration).
Each assay microtiter plate contained also wells with vehicle controls instead of compound as controls for L-Glutamic acid induced signal (negative control; 100% CTL; 10 uM L-Glutamic acid+1 uM forskolin+0.5 mM IBMX+1% DMSO) and wells with vehicle controls without L-Glutamic acid as controls for non-specific changes in signal (positive control; 0% CTL; 0 uM L-Glutamic acid+1 uM forskolin+0.5 mM IBMX+1% DMSO).
The analysis of the data is performed by the calculation the ratio between the emission at 665 nm and the emission at 615 nm (Em665/Em615 ratio). Thereafter the signals of the compounds are normalized using the positive and negative controls by the following formula:
PoC=100×((Signal Sample−Positive Control)/(Negative Control−Positive Control))

T1 sequence (Q14833 33-912): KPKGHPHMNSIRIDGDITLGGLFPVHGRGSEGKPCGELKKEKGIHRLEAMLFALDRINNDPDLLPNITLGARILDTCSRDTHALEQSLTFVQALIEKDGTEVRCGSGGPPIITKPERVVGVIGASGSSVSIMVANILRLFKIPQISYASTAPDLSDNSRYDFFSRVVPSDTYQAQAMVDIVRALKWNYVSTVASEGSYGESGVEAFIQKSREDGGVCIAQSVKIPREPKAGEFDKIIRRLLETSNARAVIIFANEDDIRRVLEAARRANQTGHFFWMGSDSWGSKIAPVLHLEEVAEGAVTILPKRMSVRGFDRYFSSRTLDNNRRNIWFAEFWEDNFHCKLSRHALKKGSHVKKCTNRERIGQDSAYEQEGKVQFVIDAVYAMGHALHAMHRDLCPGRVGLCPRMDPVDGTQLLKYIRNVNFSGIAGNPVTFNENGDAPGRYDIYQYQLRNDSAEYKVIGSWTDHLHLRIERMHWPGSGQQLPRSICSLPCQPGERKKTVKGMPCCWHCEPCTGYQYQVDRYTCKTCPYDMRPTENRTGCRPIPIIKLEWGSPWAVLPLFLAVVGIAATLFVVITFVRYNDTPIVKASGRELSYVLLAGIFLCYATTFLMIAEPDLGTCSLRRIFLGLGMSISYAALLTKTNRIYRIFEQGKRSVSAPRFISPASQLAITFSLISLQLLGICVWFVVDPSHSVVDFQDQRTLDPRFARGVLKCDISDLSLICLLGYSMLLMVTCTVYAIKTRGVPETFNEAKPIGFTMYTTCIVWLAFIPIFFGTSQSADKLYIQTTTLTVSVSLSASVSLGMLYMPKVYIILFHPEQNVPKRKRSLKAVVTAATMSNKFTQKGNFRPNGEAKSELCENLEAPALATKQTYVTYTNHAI

Compound | activity as mGluR4 modulators in Assay A (in words)
Cn1nccc1C(=O)N[C@H](c1nc2ccc(Br)nc2[nH]1)[C@H]1CC[C@H](C)CC1 [Intermediate 213 in WO2019/138017 (regioisomere 2), reference compound] | no therapeutically relevant activity

Same assay, conditions: Table 1; HEK293 cell overexpressing human mGluR4; 10 uM L-Glutamic acid, 1 uM forskolin

Compound | IC50
Cn1nccc1C(=O)N[C@H](c1nc2ccc(Br)nc2[nH]1)[C@H]1CC[C@H](C)CC1 [Intermediate 213 in WO2019/138017 (regioisomere 2), reference compound] | 13200 nM

Same assay, conditions: Table 2; HEK293 cell overexpressing human mGluR4; 10 uM L-Glutamic acid, 1 uM forskolin

Compound | IC50
CCn1c([C@@H](NC(=O)c2cnc(C)cn2)C2CC2)nc2cc(C(F)(F)F)ncc21 [Example 47, N-[(S)-cyclopropyl[3-ethyl-6-(trifluoromethyl)-3H-imidazo[4,5-c]pyridin-2-yl]methyl]-5-methylpyrazine-2-carboxamide] | 41 nM
Cc1cnc(C(=O)N[C@H](c2nc3c(C)c(C#N)cnc3n2C(C)C)C2CCC2)cn1 [Example 15, N-[(S)-[6-cyano-7-methyl-3-(propan-2-yl)-3H-imidazo[4,5-b]pyridin-2-yl](cyclobutyl)methyl]-5-methylpyrazine-2-carboxamide] | 6 nM
Cc1cnc(C(=O)N[C@@H](CC2CC2)c2nc3cc(C#N)c(C)nc3n2C(C)C)cn1 [Example 33, N-[(1S)-1-[6-cyano-5-methyl-3-(propan-2-yl)-3H-imidazo[4,5-b]pyridin-2-yl]-2-cyclopropylethyl]-5-methylpyrazine-2-carboxamide] | 15 nM
CCn1c([C@@H](NC(=O)c2cnc(C(F)F)cn2)C2CC2)nc2cnc(C(F)(F)F)cc21 [Example 49, N-[(S)-cyclopropyl[1-ethyl-6-(trifluoromethyl)-1H-imidazo[4,5-c]pyridin-2-yl]methyl]-5-(difluoromethyl)pyrazine-2-carboxamide] | 53 nM
O=C(N[C@H](c1nc2cnc(C(F)(F)F)cc2n1CC(F)F)C1CC1)c1cnc(C(F)F)cn1 [Example 46, N-[(S)-cyclopropyl[1-(2,2-difluoroethyl)-6-(trifluoromethyl)-1H-imidazo[4,5-c]pyridin-2-yl]methyl]-5-(difluoromethyl)pyrazine-2-carboxamide] | 41 nM
Cc1cnc(C(=O)N[C@H](c2nc3c(C)nc(C(F)(F)F)cc3n2CC(F)F)C2CC2)cn1 [Example 39, N-[(S)-cyclopropyl[1-(2,2-difluoroethyl)-4-methyl-6-(trifluoromethyl)-1H-imidazo[4,5-c]pyridin-2-yl]methyl]-5-methylpyrazine-2-carboxamide] | 21 nM
Cc1cnc(C(=O)N[C@H](c2nc3cc(Cl)cnc3n2C(C)C)[C@@H]2CCCO2)cn1 [Example 41, N-[(R)-[6-chloro-3-(propan-2-yl)-3H-imidazo[4,5-b]pyridin-2-yl][(2S)-oxolan-2-yl]methyl]-5-methylpyrazine-2-carboxamide] | 21 nM
Cc1cnc(C(=O)N[C@H](c2nc3c(C)c(C#N)cnc3n2C(C)C)C2CC2)cn1 [Example 28, N-[(S)-[6-cyano-7-methyl-3-(propan-2-yl)-3H-imidazo[4,5-b]pyridin-2-yl](cyclopropyl)methyl]-5-methylpyrazine-2-carboxamide] | 6 nM
Cc1cnc(C(=O)N[C@H](c2nc3c(C)c(C#N)cnc3n2C(C)C)[C@@H](C)OC(F)F)cn1 [Example 21, N-[(1R,2R)-1-[6-cyano-7-methyl-3-(propan-2-yl)-3H-imidazo[4,5-b]pyridin-2-yl]-2-(difluoromethoxy)propyl]-5-methylpyrazine-2-carboxamide] | 9 nM
Cc1cnc(C(=O)N[C@H](c2nc3cc(Cl)cnc3n2C(C)C)[C@H]2CCCO2)cn1 [Example 34, N-[(R)-[6-chloro-3-(propan-2-yl)-3H-imidazo[4,5-b]pyridin-2-yl][(2R)-oxolan-2-yl]methyl]-5-methylpyrazine-2-carboxamide] | 16 nM
CO[C@H](C)[C@H](NC(=O)c1cnc(C)cn1)c1nc2c(C)c(C#N)cnc2n1C(C)C [Example 42, N-[(1R,2R)-1-[6-cyano-7-methyl-3-(propan-2-yl)-3H-imidazo[4,5-b]pyridin-2-yl]-2-methoxypropyl]-5-methylpyrazine-2-carboxamide] | 21 nM
CCn1c([C@@H](NC(=O)c2cnc(C)cn2)C2CC2)nc2c(C)nc(C(F)(F)F)cc21 [Example 45, N-[(S)-cyclopropyl[1-ethyl-4-methyl-6-(trifluoromethyl)-1H-imidazo[4,5-c]pyridin-2-yl]methyl]-5-methylpyrazine-2-carboxamide] | 33 nM
COC(C)(C)[C@H](NC(=O)c1cnc(C)cn1)c1nc2cc(Cl)cnc2n1C(C)C [Example 9, N-[(1R)-1-[6-chloro-3-(propan-2-yl)-3H-imidazo[4,5-b]pyridin-2-yl]-2-methoxy-2-methylpropyl]-5-methylpyrazine-2-carboxamide] | 3 nM
Cc1c(C#N)cnc2c1nc([C@@H](NC(=O)c1cnc(C(F)F)cn1)[C@@H]1CCCO1)n2C(C)C [Example 36, N-[(R)-[6-cyano-7-methyl-3-(propan-2-yl)-3H-imidazo[4,5-b]pyridin-2-yl][(2S)-oxolan-2-yl]methyl]-5-(difluoromethyl)pyrazine-2-carboxamide] | 18 nM
CO[C@H](C)[C@H](NC(=O)c1cnc(C(F)F)cn1)c1nc2cc(C(F)(F)F)cnc2n1C(C)C [Example 24, 5-(difluoromethyl)-N-[(1R)-2-methoxy-1-[3-(propan-2-yl)-6-(trifluoromethyl)-3H-imidazo[4,5-b]pyridin-2-yl]propyl]pyrazine-2-carboxamide] | 10 nM
Cc1cnc(C(=O)N[C@@H](CC2CC2)c2nc3c(C)c(C#N)cnc3n2C(C)C)cn1 [Example 14, N-[(1S)-1-[6-cyano-7-methyl-3-(propan-2-yl)-3H-imidazo[4,5-b]pyridin-2-yl]-2-cyclopropylethyl]-5-methylpyrazine-2-carboxamide] | 5 nM
Cc1cnc(C(=O)N[C@@H](C[C@H]2CCCO2)c2nc3c(C)c(C#N)cnc3n2C(C)C)cn1 [Example 18, N-[(1S)-1-[6-cyano-7-methyl-3-(propan-2-yl)-3H-imidazo[4,5-b]pyridin-2-yl]-2-[(2R)-oxolan-2-yl]ethyl]-5-methylpyrazine-2-carboxamide] | 7 nM
Cc1cnc(C(=O)N[C@@H](CC2CC2)c2nc3cc(C(F)(F)F)cnc3n2C(C)C)cn1 [Example 6, N-[(1S)-2-cyclopropyl-1-[3-(propan-2-yl)-6-(trifluoromethyl)-3H-imidazo[4,5-b]pyridin-2-yl]ethyl]-5-methylpyrazine-2-carboxamide] | 2 nM
O=C(N[C@H](c1nc2cc(C(F)(F)F)ncc2n1CC(F)F)C1CC1)c1cnc(C(F)F)cn1 [Example 35, N-[(S)-cyclopropyl[3-(2,2-difluoroethyl)-6-(trifluoromethyl)-3H-imidazo[4,5-c]pyridin-2-yl]methyl]-5-(difluoromethyl)pyrazine-2-carboxamide] | 18 nM
COC(C)(C)[C@H](NC(=O)c1cnc(C(F)F)cn1)c1nc2c(C)c(C#N)cnc2n1C(C)C [Example 1, N-[(1R)-1-[6-cyano-7-methyl-3-(propan-2-yl)-3H-imidazo[4,5-b]pyridin-2-yl]-2-methoxy-2-methylpropyl]-5-(difluoromethyl)pyrazine-2-carboxamide] | 1 nM
Cc1c(C#N)cnc2c1nc([C@@H](NC(=O)c1cnc(C(F)F)cn1)[C@H]1CCCO1)n2C(C)C [Example 17, N-[(R)-[6-cyano-7-methyl-3-(propan-2-yl)-3H-imidazo[4,5-b]pyridin-2-yl][(2R)-oxolan-2-yl]methyl]-5-(difluoromethyl)pyrazine-2-carboxamide] | 7 nM
Cc1cnc(C(=O)N[C@H](c2nc3cc(F)cnc3n2C(C)C)C2CC2)cn1 [Example 44, N-[(S)-cyclopropyl[6-fluoro-3-(propan-2-yl)-3H-imidazo[4,5-b]pyridin-2-yl]methyl]-5-methylpyrazine-2-carboxamide] | 26 nM
Cc1cnc(C(=O)N[C@H](c2nc3c(C)c(C#N)cnc3n2C(C)C)[C@H]2CCCO2)cn1 [Example 40, N-[(R)-[6-cyano-7-methyl-3-(propan-2-yl)-3H-imidazo[4,5-b]pyridin-2-yl][(2R)-oxolan-2-yl]methyl]-5-methylpyrazine-2-carboxamide] | 21 nM

Reference: patent US20260199325A1, “NOVEL SUBSTITUTED PYRAZINE-CARBOXAMIDE-IMIDAZOPYRIDINE DERIVATIVES” (Boehringer Ingelheim International GmbH, priority 2022, published 2026)
